The results in this text go back to US20090036530A1, “Crystalline acid of lipoxin A4 analogs and method of making” (Bayer Schering Pharma Aktiengesellschaft, priority 2006, published 2009).

The nature of the data set: Hygroscopicity study in automated water sorption analyzer (sorption/desorption isotherm). The format is physicochemical. How it is done: Polymorph I of the free acid is transformed above 60% relative humidity into the hydrate. It is hygroscopic and adsorbs at 80% relative humidity approx. 8% moisture, which corresponds to a dihydrate of the substance. The hydration is reversible. Below 40% relative humidity a transformation into polymorph I is observed.
Data collection for the hygroscopicity studies was carried out in an automated water sorption analyzer. Approximately 10 mg of the investigated solid state form of the crystalline acid was exposed to a continuous flow of nitrogen with predetermined and constant relative humidity. The rate of sweep gas was set at 200 cm^3/min. For a basic assay, two full cycles (sorption/desorption) were measured at 25° C. The measurement was started at 0% relative humidity in order to remove surface water. Once the constant mass was achieved, the next humidity was automatically set. The water sorption/desorption was investigated in steps of 10% between 0% and 90% relative humidity under the criteria for initiation of the first step as set forth herein. Additionally, the sorption at about 98% relative humidity was investigated. Data was acquired using the DVSWin software.

Each structure is given as a SMILES string.

For `O=C(O)COC[C@H](O)[C@H](O)/C=C/C=C/C#C/C=C/[C@H](O)COc1ccc(F)cc1` [hydrate, 2-((2S,3R,4E,6E,10E,12S)-13-(4-fluorophenoxy)-2,3,12-trihydroxytrideca-4,6,10-trien-8-ynyloxy)acetic acid], the “relative humidity below which transformation into polymorph I is observed” value (desorption) is “Below 40 % relative humidity”.
Consider `O=C(O)COC[C@H](O)[C@H](O)/C=C/C=C/C#C/C=C/[C@H](O)COc1ccc(F)cc1` [polymorph I, 2-((2S,3R,4E,6E,10E,12S)-13-(4-fluorophenoxy)-2,3,12-trihydroxytrideca-4,6,10-trien-8-ynyloxy)acetic acid], for which the “relative humidity above which polymorph I is transformed into the hydrate” value (25° C., water sorption) is “above 60 % relative humidity”. In addition, the moisture adsorbed result (at 80% relative humidity, corresponds to a dihydrate) is reported as “approx. 8%”. The “hygroscopicity (in words)” value (sorption isotherm, FIG. 1) is reported as “hygroscopic”. The “reversibility of the hydration” value (sorption/desorption cycles) was “reversible”.
